Experimental data from patent publication US20260256135A1, “SOLVENT COMPOSITION FOR AGROCHEMICAL FORMULATIONS” (SPECIALTY OPERATIONS FRANCE, priority 2023, published 2026).

Experiment: Test 1: maximal solubility of an active (solo) in a solvent system, visual observation
Assay type: physicochemical
Settings: active dissolved in the solvent system; limpid with the naked eye
Description: The maximal solubility of an active or a combo of actives in a solvent system is characterized by visual observation. At a given concentration, if the mixture is limpid (with the naked eye), the active ingredient(s) is (are) considered to be soluble in the solvent system at this concentration. However, if a sedimentation of the active ingredient(s) appears, it is not soluble anymore in the solvent system and the maximal solubility is reached. The maximal solubility is thus defined as the maximum amount of active ingredient(s) that can be dissolved in the solvent system, equal to the amount at which the mixture remains limpid (with the naked eye). Each active ingredient or combo is added little by little in different solvent systems. The solutions are magnetically stirred until complete dissolution. Then an additional amount of active ingredient is added and this operation is repeated until the last part of active ingredient added could not be dissolved anymore, taking care to stir the solution after each addition of active ingredient.

maximal solubility of Difenoconazole | maximal solubility of Picoxystrobin | maximal solubility of Pinoxaden | SMILES
44.5 g/100 g of solvent | 27.3 g/100 g of solvent | 11.4 g/100 g of solvent | CCCCOC(=O)CCC(C)=O [GFbio ReSolv 200, n-butyl levulinate]
65.5 g/100 g of solvent | 43.9 g/100 g of solvent | 13.0 g/100 g of solvent | COC(=O)C(C)CCC(=O)N(C)C (stereo not drawn) [Rhodiasolv ® Polarclean, methyl-5-(dimethylamino)-2-methyl-5-oxopentanoate]
